Data on three compounds can be found in ChEMBL document CHEMBL1157259, “Cytotoxic and other compounds from Didymochlaena truncatula from the Madagascar rain forest” (J Nat Prod, 2006).

Values after ≈ are worked out from the molar mass of the structure shown.

In this experiment the test system is A2780. Briefly: Cytotoxicity against human A2780 cells by clonogenic assay. The format is functional, cell-based.
Usually IC50 stands for the concentration that gives 50% inhibition. Regarding `CC[C@@]1(O)C(=O)OCc2c1cc1n(c2=O)Cc2cc3c(OC)cccc3nc2-1`, the IC50 was found to be 0.02 µg/mL (≈ 0.0529 µM).
Turning to `CC[C@@]1(O)C(=O)OCc2c1cc1n(c2=O)Cc2cc3ccccc3nc2-1` [CAMPTOTHECIN], the IC50 came to 0.07 µg/mL (≈ 0.201 µM).
The result for `COc1cc(O)cc(/C=C/c2ccccc2)c1` [PINOSYLVIN METHYL ETHER] reads 10 µg/mL (≈ 44.2 µM).
